Reference: patent publication US6689749B1, “Neuropeptides originating in scorpion” (Suntory Limited, priority 1996, dated 2004)

Target: T1, rat brain voltage-gated K+ channel, Kv1.3 (Rattus norvegicus, UniProt P15384)
T1 construct: expressed in transfected cells; host or cells: Xenopus oocytes (cRNA injection; pAS18 vector, SP6 transcription; clone from Prof; O. Pongs)
Assay: Assay of K+ channel inhibition: two-electrode voltage clamp of Kv1.3 expressed in Xenopus oocytes
Assay type: cell-based
Details: IC50 comparison with C-terminally amidated HsTX1
Protocol: Assay on inhibitory activity of the peptides on K^+ channels was performed in the following manner. The gene of the rat brain voltage-gated K^+ channel, Kv1.3 (Stuhmer et al., EMBO J., 8, vol. 11, pp. 3235-3244, 1988), which was graciously contributed by Prof. O. Pongs (Institute für Neurale Signalverarbeitung, Hamburg, Germany) was inserted into pAS18 vector according to a conventional technique. This vector was treated with EcoRI and then the resultant clone was transcribed in vitro with SP6 RNA polymerase using a transcription kit (Stratagene Inc., USA). The cRNA obtained was injected into Xenopus oocytes 16-72 hr prior to electrophysiological experiments.
The oocytes which had been expressed the Kv1.3 gene were added to a 100 μl-chamber filled with an ND96 solution (0.3 mM CaCl2, 1 mM MgCl2, 2 mM KCl and 96 mM NaCl in 5 mM Hepes buffer, pH 7.6) supplemented with 50 mg/ml of bovine serum albumin (BSA), and the ND96 solution was continuously perfused through reservoirs at a flow rate of 4 ml/min. The sample to be tested was separately dissolved to an ND96 solution and then added to the chamber by perfusion through a reservoir. The switching from one reservoir to another for each experiment was performed by means of Teflon valves. All measurements were made at room temperature (about 22° C.). […]

T1 sequence (P15384 whole entry): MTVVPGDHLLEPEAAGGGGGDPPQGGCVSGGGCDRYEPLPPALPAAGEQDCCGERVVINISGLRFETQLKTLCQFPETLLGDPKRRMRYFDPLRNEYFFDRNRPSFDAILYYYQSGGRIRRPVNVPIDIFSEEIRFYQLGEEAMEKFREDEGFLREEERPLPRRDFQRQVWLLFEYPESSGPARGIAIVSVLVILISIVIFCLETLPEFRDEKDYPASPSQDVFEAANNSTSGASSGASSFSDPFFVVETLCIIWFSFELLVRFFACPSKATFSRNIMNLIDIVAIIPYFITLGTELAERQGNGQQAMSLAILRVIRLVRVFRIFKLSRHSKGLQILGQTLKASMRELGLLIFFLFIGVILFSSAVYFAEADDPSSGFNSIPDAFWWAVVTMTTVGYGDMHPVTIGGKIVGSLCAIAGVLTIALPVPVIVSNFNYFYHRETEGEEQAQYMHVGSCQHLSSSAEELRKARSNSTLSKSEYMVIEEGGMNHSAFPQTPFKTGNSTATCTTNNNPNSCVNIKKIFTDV

CSCC[C@@H]1NC(=O)[C@@H]2CSSC[C@H](NC(=O)[C@H](CO)NC(=O)[C@H](C)N)C(=O)N[C@@H](CCCNC(=N)N)C(=O)N[C@@H]([C@@H](C)O)C(=O)N3CCC[C@H]3C(=O)N[C@@H](CCCCN)C(=O)N[C@@H](CC(=O)O)C(=O)N[C@H]3CSSC[C@H](NC(=O)[C@H](CCCCN)NC(=O)[C@H](CCCNC(=N)N)NC(=O)[C@H](CC(N)=O)NC1=O)C(=O)N[C@@H](CCCCN)C(=O)N[C@H]1CSSC[C@H](NC(=O)[C@@H]4CCCN4C(=O)[C@H](CC(=O)O)NC(=O)[C@H](C)NC3=O)C(=O)N[C@@H](CCCNC(=N)N)C(=O)N[C@@H](CCCCN)C(=O)N[C@@H](CCC(=O)O)C(=O)N[C@@H]([C@@H](C)O)C(=O)NCC(=O)N[C@@H](CSSC[C@@H](C(=O)O)NC(=O)[C@H](CCCNC(=N)N)NC(=O)[C@H](CC(N)=O)NC1=O)C(=O)N1CCC[C@H]1C(=O)N[C@@H](Cc1ccc(O)cc1)C(=O)NCC(=O)N[C@@H](CCCCN)C(=O)N2 [HsTX1-COOH]
activity relative to HsTX1 on Kv1.3: about one-fifth
